Earlier results on two compounds are cited in PMC7178755 (Toxicology and applied pharmacology, 2019).

Read-outs that look alike come from different tables or passages of the source. Marks after values point to notes of the source that are not given here.

For data set [1] the following is noted: free BPA; female SD rats; 0.1 mg/kg gavage; ref Dorege et al., (2010); cited from earlier work.
For data set [2] the following is noted: free BPA; female CD-1 mice; 100 mg/kg gavage; ref Taylor et al., (2015); cited from earlier work.
The conditions of data set [3]: free BPA; female Rhesus Monkeys; 0.4 mg/kg oral; ref Taylor et al., (2015); cited from earlier work.
For data set [4] the following is noted: rat uterotrophic assay; administered orally; ref Conley et al., 2016; cited from earlier work.
For data set [5] the following is noted: rat, in vivo, 100 mg/kg; cited from earlier work.

Consider `CC(C)(c1ccc(O)cc1)c1ccc(O)cc1` [BPA, bisphenol A], for which, in data set [1], the “AUC0−∞” value was 0.0026^g nmol.h/mL, the Cmax was 0.39 nM, the “Dose-normalized AUC0−∞” value is 5.91 (nmol.h/mL)/(mmol/kg) and the “Dose-normalized Cmax” value is on record as 0.886 (nmol/mL)/(mmol/kg). Also, in data set [2], the “AUC0−∞” value is 13.1^i nmol.h/mL, the Cmax was 4160 nM, the “Dose-normalized AUC0−∞” value is listed as 29.8 (nmol.h/mL)/(mmol/kg) and the “Dose-normalized Cmax” value is 9.47 (nmol/mL)/(mmol/kg). The Tmax in data set [2] was 1 h. Moreover, in data set [3], the “AUC0−∞” value is recorded as 0.0589^i nmol.h/mL; the Cmax was 17.3 nM; the “Half-life (terminal, beta)” value is recorded as 8.88 h; the Tmax is 1 h. For the same compound, the ED50 in data set [4] is on record as 1118.0 mg/kg/day.

In the case of `O=C(O)[C@H]1O[C@@H](Oc2ccc(C(c3ccc(O)cc3)(C(F)(F)F)C(F)(F)F)cc2)[C@H](O)[C@@H](O)[C@@H]1O` [BPAF-glucuronide], the “time of maximum plasma concentration” value in data set [5] is reported as 30 min.
